According to ChEMBL document CHEMBL1156232, “Non-classical antifolates. Part 2: synthesis, biological evaluation, and molecular modeling study of some new 2,6-substituted-quinazolin-4-ones” (Bioorg Med Chem, 2010):
Values after ≈ are worked out from the molar mass of the structure shown. Active and inactive are the calls of the source. No cut-off for these calls is given here.

Tests used:
Candida albicans [1] = experiment: Antifungal activity against Candida albicans after 48 hrs by microdilution susceptibility method; format: functional, organism-based
Dihydrofolate reductase [2] = target: T1, Dihydrofolate reductase (Homo sapiens, UniProt P00374)
T1 sequence (P00374 whole entry): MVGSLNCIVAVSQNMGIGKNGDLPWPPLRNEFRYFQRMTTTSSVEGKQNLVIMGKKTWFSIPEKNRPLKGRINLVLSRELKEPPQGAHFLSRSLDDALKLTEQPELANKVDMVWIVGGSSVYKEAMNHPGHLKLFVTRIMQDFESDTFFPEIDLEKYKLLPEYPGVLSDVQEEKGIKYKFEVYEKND
Description: Inhibition of human DHFR after 2 mins

Staphylococcus aureus [3] = experiment: Antibacterial activity against Staphylococcus aureus at 200 ug/disk after 24 hrs by disk diffusion method; format: functional; conditions: for zone of inhibition at 200 µg/disc: read-out: DIZ
Dihydrofolate reductase [4] = target: T2, Dihydrofolate reductase (Bos taurus, UniProt P00376)
T2 sequence (P00376 whole entry): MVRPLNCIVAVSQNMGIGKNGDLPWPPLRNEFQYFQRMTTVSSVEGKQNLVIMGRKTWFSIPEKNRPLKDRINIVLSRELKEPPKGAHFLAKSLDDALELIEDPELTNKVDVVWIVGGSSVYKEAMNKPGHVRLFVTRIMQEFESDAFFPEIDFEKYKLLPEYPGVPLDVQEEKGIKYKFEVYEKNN
Description: Inhibition of bovine DHFR after 2 mins

Bacillus subtilis [5] = experiment: Antibacterial activity against Bacillus subtilis at 200 ug/disk after 24 hrs by disk diffusion method; format: functional; conditions: for zone of inhibition at 200 µg/disc: read-out: DIZ
Escherichia coli [6] = experiment: Antibacterial activity against Escherichia coli at 200 ug/disk after 24 hrs by disk diffusion method; format: functional; conditions: for zone of inhibition at 200 µg/disc: read-out: DIZ
Candida albicans [7] = experiment: Antifungal activity against Candida albicans at 200 ug/disk after 48 hrs by disk diffusion method; format: functional, organism-based
Pseudomonas aeruginosa = experiment: Antibacterial activity against Pseudomonas aeruginosa at 200 ug/disk after 24 hrs by disk diffusion method; format: functional; conditions: for zone of inhibition at 200 µg/disc: read-out: DIZ
Micrococcus luteus [8] = experiment: Antibacterial activity against Micrococcus luteus at 200 ug/disk after 24 hrs by disk diffusion method; format: functional; conditions: for zone of inhibition at 200 µg/disc: Micrococcus luteus, 24 h, read-out: DIZ
Escherichia coli [9] = experiment: Antibacterial activity against Escherichia coli after 24 hrs by microdilution susceptibility method; format: functional
Bacillus subtilis [10] = experiment: Antibacterial activity against Bacillus subtilis after 24 hrs by microdilution susceptibility method; format: functional
Micrococcus luteus [11] = experiment: Antibacterial activity against Micrococcus luteus after 24 hrs by microdilution susceptibility method; format: functional
Staphylococcus aureus [12] = experiment: Antibacterial activity against Staphylococcus aureus after 24 hrs by microdilution susceptibility method; format: functional
[13] = Antitumor activity against human non small cell lung cancer cells after 48 hrs by SRB assay; format: functional; conditions: Cancer cell lines
[14] = Antitumor activity against human CNS cancer cells after 48 hrs by SRB assay; format: functional; conditions: Cancer cell lines
[15] = Antitumor activity against human renal cancer cells after 48 hrs by SRB assay; format: functional; conditions: Cancer cell lines
[16] = Antitumor activity against human colon cancer cells after 48 hrs by SRB assay; format: functional; conditions: Cancer cell lines
[17] = Antitumor activity against human melanoma cells after 48 hrs by SRB assay; format: functional; conditions: Melanoma cell
[18] = Antitumor activity against human breast cancer cells after 48 hrs by SRB assay; format: functional; conditions: Cancer cell lines
[19] = Antitumor activity against human leukemia cells after 48 hrs by SRB assay; format: functional; conditions: Leukemia cell
[20] = Antitumor activity against human prostate cancer cells after 48 hrs by SRB assay; format: functional; conditions: Cancer cell lines
[21] = Antitumor activity against human ovarian cancer cells after 48 hrs by SRB assay; format: functional; conditions: Cancer cell lines

SMILES	Activity (Candida albicans [1])	IC50 (Dihydrofolate reductase [2]) [nM]	IC50 (Dihydrofolate reductase [4]) [nM]	diameter of the inhibition zone (DIZ) (Bacillus subtilis [5])	diameter of the inhibition zone (DIZ) (Escherichia coli [6])	Activity (Candida albicans [7])	diameter of the inhibition zone (DIZ) (Pseudomonas aeruginosa)	diameter of the inhibition zone (DIZ) (Micrococcus luteus [8])	diameter of the inhibition zone (DIZ) (Staphylococcus aureus [3])	MIC (Escherichia coli [9]) [µg/mL]	MIC (Bacillus subtilis [10]) [µg/mL]	zone of inhibition at 200 µg/disc (Bacillus subtilis [5]) [mm]	zone of inhibition at 200 µg/disc (Escherichia coli [6]) [mm]	further results
C=CC(=O)Nc1ccc2nc(SC/C=C/c3ccccc3)n(Cc3ccccc3)c(=O)c2c1	inactive	2000	1000	inactive	inactive	inactive	inactive	inactive						zone of inhibition at 200 µg/disc (Staphylococcus aureus [3]): 15 mm
C=CCSc1nc2ccc(C)cc2c(=O)n1Cc1ccccc1	inactive	4000	2000	inactive	inactive	inactive	inactive	inactive	inactive					
CSc1nc2ccc(N(C/C=C/c3ccccc3)C/C=C/c3ccccc3)cc2c(=O)n1Cc1ccccc1	inactive	800	600			inactive	inactive	inactive	inactive	16 (≈ 30.2 µM)	8 (≈ 15.1 µM)	18	16	
C=CCNc1ccc2nc(SCC=C)n(Cc3ccccc3)c(=O)c2c1	inactive	1000	800	inactive	inactive	inactive	inactive	inactive	inactive					
O=c1c2cc([N+](=O)[O-])ccc2nc(S)n1Cc1ccccc1	inactive		15000		inactive	inactive	inactive				8 (≈ 25.5 µM)	18		MIC (Micrococcus luteus [11]): 16 µg/mL (≈ 51.1 µM); zone of inhibition at 200 µg/disc (Staphylococcus aureus [3]): 20 mm; MIC (Staphylococcus aureus [12]): 4 µg/mL (≈ 12.8 µM); zone of inhibition at 200 µg/disc (Micrococcus luteus [8]): 16 mm
C=CCN(C)c1ccc2nc(SC)n(Cc3ccccc3)c(=O)c2c1	inactive	2000	1000	inactive	inactive	inactive	inactive	inactive	inactive					
Nc1ccc2nc(SC/C=C/c3ccccc3)n(Cc3ccccc3)c(=O)c2c1	inactive	6000	8000	inactive	inactive	inactive	inactive	inactive	inactive					
C=CCNc1ccc2nc(SC)n(Cc3ccccc3)c(=O)c2c1	inactive	800	600	inactive		inactive	inactive	inactive	inactive				17	
Cc1ccc2nc(S)n(Cc3ccccc3)c(=O)c2c1	inactive		30000			inactive			inactive	4 (≈ 14.2 µM)	4 (≈ 14.2 µM)	18	17	zone of inhibition at 200 µg/disc (Pseudomonas aeruginosa): 15 mm; zone of inhibition at 200 µg/disc (Micrococcus luteus [8]): 14 mm
C=CCSc1nc2ccc([N+](=O)[O-])cc2c(=O)n1Cc1ccccc1	inactive	2000	3000	inactive	inactive	inactive	inactive	inactive	inactive					
C=CCN(CC=C)c1ccc2nc(SC)n(Cc3ccccc3)c(=O)c2c1	inactive	1000	3000	inactive	inactive	inactive	inactive	inactive	inactive					
Nc1ccc2ncn(Cc3ccccc3)c(=O)c2c1	inactive		40000			inactive	inactive			4 (≈ 15.9 µM)	2 (≈ 7.96 µM)	28	22	MIC (Micrococcus luteus [11]): 4 µg/mL (≈ 15.9 µM); zone of inhibition at 200 µg/disc (Staphylococcus aureus [3]): 24 mm; MIC (Staphylococcus aureus [12]): 2 µg/mL (≈ 7.96 µM); zone of inhibition at 200 µg/disc (Micrococcus luteus [8]): 20 mm
C=CCSc1nc2ccc(NC(=O)/C=C/c3ccccc3)cc2c(=O)n1Cc1ccccc1	inactive	500	700			inactive	inactive	18 mm		8 (≈ 17.6 µM)	8 (≈ 17.6 µM)	18	18	MIC (Micrococcus luteus [11]): 8 µg/mL (≈ 17.6 µM); zone of inhibition at 200 µg/disc (Staphylococcus aureus [3]): 16 mm; MIC (Staphylococcus aureus [12]): 8 µg/mL (≈ 17.6 µM)
Cc1ccc2nc(SC/C=C/c3ccccc3)n(Cc3ccccc3)c(=O)c2c1	inactive	1000	500	inactive	inactive	inactive	inactive	inactive	inactive					
CSc1nc2ccc(NC/C=C/c3ccccc3)cc2c(=O)n1Cc1ccccc1	inactive	2000	500	inactive		inactive	inactive	inactive	inactive				15	
O=c1[nH]cc(F)c(=O)[nH]1 [FLUOROURACIL]														GI50 [13]: > 100 µM; TGI [13]: > 100 µM; GI50 [14]: 72.1 µM; TGI [14]: > 100 µM; GI50 [15]: 45.6 µM; TGI [15]: > 100 µM; GI50 [16]: 8.4 µM; TGI [16]: > 100 µM; GI50 [17]: 70.6 µM; TGI [17]: > 100 µM; GI50 [18]: 76.4 µM; TGI [18]: > 100 µM; GI50 [19]: 15.1 µM; TGI [19]: > 100 µM; GI50 [20]: 22.7 µM; TGI [20]: > 100 µM; GI50 [21]: 61.4 µM; TGI [21]: > 100 µM
C=CCSc1nc2ccc(N(CC=C)CC=C)cc2c(=O)n1Cc1ccccc1	inactive	900	400	inactive	inactive	inactive	inactive	inactive	inactive					
C=CCSc1nc2ccc(N)cc2c(=O)n1Cc1ccccc1	inactive	5000	8000	inactive	inactive	inactive	inactive	inactive	inactive					
CCSc1nc2ccc([N+](=O)[O-])cc2c(=O)n1Cc1ccccc1	inactive		10000	inactive		inactive		inactive	inactive	8 (≈ 23.4 µM)			20	zone of inhibition at 200 µg/disc (Pseudomonas aeruginosa): 15 mm
C=CCSc1nc2ccc(N(C/C=C/c3ccccc3)C/C=C/c3ccccc3)cc2c(=O)n1Cc1ccccc1	inactive	700	500			inactive	inactive	inactive		16 (≈ 28.8 µM)	4 (≈ 7.2 µM)	20	16	zone of inhibition at 200 µg/disc (Staphylococcus aureus [3]): 22 mm; MIC (Staphylococcus aureus [12]): 4 µg/mL (≈ 7.2 µM)
